# Columns and labels:
# [1] = Loss of heavy-isotope-labeled fatty acids during incubation (adsorption to container); format: physicochemical; details: 1% PS20, 200 mg/mL mAb3, 37° C., plastic tubes
# Protocol: The hydrolysis of PS20 in mAb formulations used for the fatty acid quantitation method of the invention was optimized by mixing 60 μL of 200 mg/mL mAb-3 (10 mM histidine, pH 6.3) with 0.62 μL, 1.26 μL, 3.2 μL and 6.8 μL 10% PS20 with or without 1.5 μL ISTD mixture (200 μg/mL lauric-d23 acid, 40 μg/mL myristic-d27 acid, and oleic acid-^13C18 in 20% methanol) in Eppendorf plastic tubes (category number 022431064) or Waters glass vials (SKU 600000668CV), […] Incubation samples were analyzed by LC multiple reaction monitoring (LC-MRM) after extraction (Table 2). Incubation conditions were optimized for measuring fatty acid content using LC-MRM after extraction. Fatty acids were extracted from mAb solution using an extraction protocol developed by Honemann et al. with an optimized precipitation buffer and extraction time (Honemann et al.). […] Subsequently, 40 μL of the supernatant was transferred to a 96-well plate, and 5 μL was subjected to LC-MRM for quantitation. […] Elution was performed at 0.4 mL/minute, and peaks at 1-7 minutes were analyzed using an ESI source operating in negative mode, with a gas temperature of 200° C., gas flow of 12 L/minute, nebulizer gas pressure of 20 psi, sheath gas temperature of 300° C., sheath gas flow of 11 L/min, capillary voltage of −3000 V, and nozzle voltage of 500 V. Lauric acid and lauric-d23 acid were monitored at 199.1/199.1 and 222.3/222.3; myristic acid and myristic-d27 acid were monitored at 227.2/227.2 and 254.4/254.4; palmitic acid, oleic acid, oleic acid-^13C18, stearic acid, and linoleic acid were monitored at 255.2/255.2, 281.2/281.2, 299.2/299.2, 283.2/283.2, and 279.2/279.2 with CE 5, respectively. […] Peak integration was performed by Skyline, and fatty acid concentrations were calculated based on a calibration curve created from a spiked-in fatty acid concentration plot against To investigate why fatty acids were lost during incubation, isotope-labeled fatty acids were employed. […]
# [2] = Solubility of free fatty acid in the formulation; format: physicochemical; details: mAb formulation, aqueous with cosolvent or surfactant or cyclodextrin
Compound,fatty acid lost after 6-day incubation [1] [%],solubility [2] [µg/mL]
CCCCCCCCCCCC(=O)O [lauric acid],50,> 20
CCCCCCCCCCCCCC(=O)O [myristic acid],34,
CCCCCCCC/C=C\CCCCCCCC(=O)O [oleic acid],15,
